Where two headings read alike, the source gives them in different places. Values belong to the molecule of their own block, whether it stands above or below them.
Key:
[1] = target: PDE4B2 (Homo sapiens, UniProt Q07343); assay: 5FOA growth assay in fission yeast strain expressing PDE4B2; assay type: cell-based; set-up: targets used in the assays are full-length proteins (as opposed to simply the catalytic domain); expressed in transfected cells; host or cells: Schizosaccharomyces pombe; settings: OD600 0.6
Description: Cells were pregrown in EMM medium [MP Biomedicals (Solon, Ohio), 3% glucose, filter-sterilized to avoid carmelization, which would introduce variability into the optical density of the medium] containing from 0 mM to 2.5 mM cAMP (or either 0.5 mM or 1.0 mM cGMP). This was to repress expression of the fbp1-ura4 reporter prior to exposure of cells to 5FOA medium. Cells were grown at 30° C. to exponential phase (approximately 10^7 cells/ml). […] Starting cell concentrations ranged from 0.5×10^5 to 4×10^5 cells/ml depending on the screening strain. […] Other positive control dishes contained 5 mM cAMP in the 5FOA medium for PDEs that lack appropriate control compounds. Cultures were grown for 48 hours at 30° C., sealed in an airtight container with moist paper towels to prevent evaporation. Optical densities (OD600) of cultures were measured using a microplate reader. Bioinformatic analysis of the results to determine composite Z scores was performed as previously described (1, 3).

[2] = target: T1, PDE4D2 (Homo sapiens, UniProt Q08499); assay: cAMP response in yeast strain expressing PDE4D2; assay type: cell-based
T1 construct: targets used in the assays are full-length proteins (as opposed to simply the catalytic domain); expressed in transfected cells; host or cells: Schizosaccharomyces pombe

[3] = target: T2, PDE4A1 (Mus musculus, UniProt O89084); assay: cAMP response in yeast strain expressing PDE4A1; assay type: cell-based, Murine
T2 construct: targets used in the assays are full-length proteins (as opposed to simply the catalytic domain); expressed in transfected cells; host or cells: Schizosaccharomyces pombe, PDE gene integrated in place of cgs2
T2 sequence (O89084 1-610 isoform O89084-2): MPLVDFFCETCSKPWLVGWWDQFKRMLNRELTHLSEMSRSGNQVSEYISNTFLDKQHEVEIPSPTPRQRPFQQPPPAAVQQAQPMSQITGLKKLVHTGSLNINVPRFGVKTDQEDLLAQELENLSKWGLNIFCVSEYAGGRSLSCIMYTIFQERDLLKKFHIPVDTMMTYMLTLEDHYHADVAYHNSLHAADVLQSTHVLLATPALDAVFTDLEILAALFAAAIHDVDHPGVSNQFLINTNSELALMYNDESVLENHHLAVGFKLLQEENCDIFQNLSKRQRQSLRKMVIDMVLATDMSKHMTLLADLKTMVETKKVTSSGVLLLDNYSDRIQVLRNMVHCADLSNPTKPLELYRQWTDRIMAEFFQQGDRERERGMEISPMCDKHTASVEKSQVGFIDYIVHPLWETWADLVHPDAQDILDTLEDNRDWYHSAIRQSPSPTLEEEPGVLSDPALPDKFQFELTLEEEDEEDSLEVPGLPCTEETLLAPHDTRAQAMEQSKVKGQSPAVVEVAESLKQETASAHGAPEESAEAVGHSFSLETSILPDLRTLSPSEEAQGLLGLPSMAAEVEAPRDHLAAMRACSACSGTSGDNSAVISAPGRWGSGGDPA
Excerpt: (§1) Values represent the average and SD of two or three independent experiments. […] The strains used are as in FIG. 5A, together with strain CHP1141 (PDE8A). Values represent the average and SD of two or three independent experiments.
(§2) Thus, PDE inhibition can be indirectly quantitated by measuring the effect of a compound on cAMP levels in target yeast strains.

[4] = target: T3, PDE4B3 (Mus musculus, UniProt Q8VBU5); assay: cAMP response in yeast strain expressing PDE4B3; assay type: cell-based, Murine
T3 construct: targets used in the assays are full-length proteins (as opposed to simply the catalytic domain); expressed in transfected cells; host or cells: Schizosaccharomyces pombe, PDE gene integrated in place of cgs2
T3 sequence (Q8VBU5 1-721): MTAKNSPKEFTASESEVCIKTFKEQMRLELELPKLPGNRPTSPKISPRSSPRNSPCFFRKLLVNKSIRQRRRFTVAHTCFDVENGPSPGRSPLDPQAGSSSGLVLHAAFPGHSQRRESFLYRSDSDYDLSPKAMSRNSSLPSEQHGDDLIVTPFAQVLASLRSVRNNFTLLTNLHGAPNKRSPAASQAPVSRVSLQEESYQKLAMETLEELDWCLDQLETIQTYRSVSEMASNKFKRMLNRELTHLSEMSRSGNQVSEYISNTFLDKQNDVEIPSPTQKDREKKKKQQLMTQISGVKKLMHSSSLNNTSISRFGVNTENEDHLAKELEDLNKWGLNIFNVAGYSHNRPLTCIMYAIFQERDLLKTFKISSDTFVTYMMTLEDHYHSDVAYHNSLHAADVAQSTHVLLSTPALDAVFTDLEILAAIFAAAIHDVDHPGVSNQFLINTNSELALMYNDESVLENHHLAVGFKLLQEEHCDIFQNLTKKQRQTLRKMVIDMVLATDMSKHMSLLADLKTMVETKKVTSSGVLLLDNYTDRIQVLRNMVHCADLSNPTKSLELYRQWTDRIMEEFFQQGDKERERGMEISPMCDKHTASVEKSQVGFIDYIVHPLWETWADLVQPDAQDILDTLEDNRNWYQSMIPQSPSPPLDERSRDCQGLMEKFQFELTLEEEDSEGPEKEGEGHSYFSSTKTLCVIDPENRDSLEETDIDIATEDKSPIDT
Excerpt: as §1, §2

[5] = tested on: PDE4A, PDE4B, PDE4D, PDE7A, PDE7B, PDE8A, PDE3A; assay: Summary of PDE inhibitor profile; set-up: key: (1): Strong PDE7A inhibitor, weak to moderate PDE4A, 4B inhibitor; (2): Strong PDE7A and PDE4s (including PDE4D) inhibitor; (3): Strong PDE7A inhibitor; settings: overall classification, Table 18 footnotes
[6] = tested on: U937 cells; assay: TNF alpha release by LPS-treated U937 cells; assay type: cell-based; settings: for TNF alpha, % vehicle control: 10 uM cmpd, 0 uM BC30
[7] = target: PDE7B (Homo sapiens, UniProt Q9NP56); assay: in vitro enzyme assay, PDE7B catalytic domain from E. coli, hydrolysis of cAMP to AMP; assay type: biochemical; set-up: The PDE7B catalytic domain was expressed in and purified from E. coli; made in house; host or cells: E. coli
Description: The PDE7B catalytic domain was expressed in and purified from E. coli and tested for activity in an in vitro enzyme assay, measuring the hydrolysis of cAMP to AMP. Four dilutions of the enzyme preparation were tested at various compound concentrations (X axis). The percent of cAMP hydrolyzed is plotted on the Y axis.

T1 sequence (Q08499 303-809): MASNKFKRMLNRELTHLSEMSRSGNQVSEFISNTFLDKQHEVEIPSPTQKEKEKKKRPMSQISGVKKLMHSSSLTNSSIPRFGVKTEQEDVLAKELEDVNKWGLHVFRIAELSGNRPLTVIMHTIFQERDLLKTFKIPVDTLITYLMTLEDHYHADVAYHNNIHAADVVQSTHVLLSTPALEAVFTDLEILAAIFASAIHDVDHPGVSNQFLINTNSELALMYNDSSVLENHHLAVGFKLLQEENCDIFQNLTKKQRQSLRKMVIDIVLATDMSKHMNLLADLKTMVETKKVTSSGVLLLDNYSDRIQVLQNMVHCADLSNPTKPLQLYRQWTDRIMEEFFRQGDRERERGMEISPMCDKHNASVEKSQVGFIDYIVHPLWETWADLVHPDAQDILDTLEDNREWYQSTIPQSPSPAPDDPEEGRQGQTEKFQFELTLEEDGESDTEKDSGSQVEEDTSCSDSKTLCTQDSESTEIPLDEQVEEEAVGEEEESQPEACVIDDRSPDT
Chain of PDE7B (Q9NP56 97-420 limits assumed, species assumed): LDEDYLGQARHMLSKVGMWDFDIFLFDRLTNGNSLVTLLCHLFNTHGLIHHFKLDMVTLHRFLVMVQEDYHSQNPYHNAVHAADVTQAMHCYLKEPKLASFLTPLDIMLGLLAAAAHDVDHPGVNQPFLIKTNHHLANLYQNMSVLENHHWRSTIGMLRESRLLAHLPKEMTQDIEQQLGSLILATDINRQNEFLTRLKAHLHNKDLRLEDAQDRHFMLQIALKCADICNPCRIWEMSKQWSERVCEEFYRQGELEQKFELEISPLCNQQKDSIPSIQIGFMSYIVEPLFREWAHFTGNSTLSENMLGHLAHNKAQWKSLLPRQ
Chain of PDE4B2 (Q07343 1-564 isoform Q07343-2, species assumed): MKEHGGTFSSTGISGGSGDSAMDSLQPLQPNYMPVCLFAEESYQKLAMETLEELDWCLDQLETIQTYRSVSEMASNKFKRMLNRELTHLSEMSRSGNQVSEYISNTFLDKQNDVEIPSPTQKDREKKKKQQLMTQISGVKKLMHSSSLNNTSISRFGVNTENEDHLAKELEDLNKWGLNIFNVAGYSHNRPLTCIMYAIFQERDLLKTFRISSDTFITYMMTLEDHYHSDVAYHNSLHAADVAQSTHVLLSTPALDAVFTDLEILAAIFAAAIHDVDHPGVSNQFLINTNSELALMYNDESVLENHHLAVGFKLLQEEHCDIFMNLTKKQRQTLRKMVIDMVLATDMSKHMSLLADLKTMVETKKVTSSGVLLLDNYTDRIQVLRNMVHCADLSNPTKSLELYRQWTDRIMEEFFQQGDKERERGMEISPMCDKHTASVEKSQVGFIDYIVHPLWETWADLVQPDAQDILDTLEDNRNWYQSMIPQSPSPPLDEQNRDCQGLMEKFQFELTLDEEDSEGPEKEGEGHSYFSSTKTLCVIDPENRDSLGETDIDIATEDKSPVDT

- EC50 ([1]; value marked (m), read-out: ED50 for 5FOA growth assays, PDE4B2 (m)): 1.7 µM
SMILES: CCC1CCc2c(sc3ncnc(N4CCOCC4)c23)C1 (stereo not shown) [BC33]

- cAMP Response (% rolipram), 4D2 [2]: ND ND ND 34.00 ND % rolipram
- cAMP Response (% rolipram), 4A1 [3]: 54.00 % rolipram
- cAMP Response (% rolipram), 4B3 [4]: 51.00 % rolipram
SMILES: COC(=O)C1=C(C)N(C2CCCCC2)C(=O)/C1=C\c1cccs1 [Compound 22]

SMILES: COc1ccc2c(c1)[C@@]1(C)CCC[C@](C)(CO)C1CC2 (stereo partly shown) [Compound 2067M03]
- PDE inhibitor profile (Table 18) [5]: 2067M03 (1)

- cAMP Response (% rolipram), 4D2 [2]: ND ND ND 11.00 ND % rolipram
- cAMP Response (% rolipram), 4A1 [3]: 78.00 % rolipram
- cAMP Response (% rolipram), 4B3 [4]: 71.00 % rolipram
SMILES: COC(=O)C1=C(C)N(c2ccccc2Cl)C(=O)/C1=C\c1cccs1 [Compound 27]
- TNF alpha, % vehicle control ([6]; after 3 h.): 75.3%
- TNF alpha, % vehicle control ([6]; after 20 h.): 78.3%

- EC50 ([1]; read-out: ED50 for 5FOA growth assays, PDE4B2): > 200 µM
SMILES: Cc1sc2ncnc(Nc3ccccc3)c2c1C [BC64]

- IC50 ([7]; AC200 = [Compound] that doubles PDE activity, read-out: IC50 (or AC200), PDE7B): 12 µM
- cAMP Response, 4D2 ([2]; Table 16, unit not given): ND ND ND 7.5 ND
- cAMP Response, 4A1 ([3]; Table 16, unit not given): 65.7
- cAMP Response, 4B3 ([4]; Table 16, unit not given): 67
SMILES: N#Cc1sc2sc(C#N)c(-c3ccco3)c2c1N [Compound 30]
- TNF ([6]; 3 HOURS): 3317 pg/mL
- TNF, % EtOH cntrl ([6]; 3 HOURS): 68.7%
- TNF ([6]; 20 HOURS): 7481 pg/mL
- TNF, % EtOH cntrl ([6]; 20 HOURS): 54.7%

SMILES: Cc1ccc2c(c1)CCC1CC(=O)CC[C@]21C (stereo partly shown) [Compound 2158J12]
- PDE inhibitor profile (Table 18) [5]: 2158J12 (2)

- PDE7B, 2 uM cpm ([7]; 2 uM compound): 15093 cpm
SMILES: Cc1c(C(=O)Nc2ccc(F)cc2F)sc2ncnc(N3CCC(C)CC3)c12 [BC58]
- TNF alpha reduction, conclusion in words [6]: good PDE4 inhibitor activity

Reference: US20100227853A1, “INHIBITORS OF CYCLIC AMP PHOSPHODIESTERASES” (Trustees of Boston College, priority 2008, published 2010)
